Patent publication US20170334899A1, “AMINO-SUBSTITUTED ISOTHIAZOLES” (Bayer Pharma Aktiengesellschaft, priority 2014, published 2017)

Legend:
Format in all cases: cell-based
[1] = system: human cervical tumor cell line HeLa (ATCC CCL-2); experiment: SAC-Formation - Paclitaxel-Induced Assay; conditions: Homo sapiens, HeLa, 24 h, HeLa cells, paclitaxel 0.05 μM, test range 0.005 μM-20 μM, read-out: IC50 [mol/l] SAC-Formation - Paclitaxel-Induced Assay
Text: (§1) The spindle assembly checkpoint assures the proper segregation of chromosomes during mitosis. Upon entry into mitosis, chromosomes begin to condensate which is accompanied by the phosphorylation of histone H3 on serine 10. Dephosphorylation of histone H3 on serine 10 begins in anaphase and ends at early telophase. Accordingly, phosphorylation of histone H3 on serine 10 can be utilized as a marker of cells in mitosis. Nocodazole is a microtubule destabilizing substance. Paclitaxel is a microtubule stabilizing compound. Thus, nocodazole as well as paclitaxel interfere with microtubule dynamics and mobilize the spindle assembly checkpoint. […] The mitotic breakthrough can be detected by the decrease of cells with phosphorylation of histone H3 on serine 10. This decline is used as a marker to determine the capability of compounds of the present invention to induce a mitotic breakthrough. The typical morphological alteration of nuclei with a prematurely completed mitosis after SAC-inhibition can be monitored via image analysis routines supporting those findings.
(§2) The nocodazole and paclitaxel variations were used to focus on compounds that are capable of inhibiting a SAC induced by both microtubule destabilization as well as microtubule stabilization. When SAC inducing agents and compounds are given simultaneously inhibitors that effectively block the SAC during formation or abrogation are identified. When cells are incubated with a SAC inducing agent and the SAC interfering compound is given after a defined time, inhibitors are identified that effectively block SAC abrogation.
Cultivated cells of the human cervical tumor cell line HeLa (ATCC CCL-2) were plated at a density of 1000 cells/well in a 1536-well microtiter plate in 2 μl PAA
(§3) Ham's F12 Medium supplemented with 1% (v/v) glutamine, 1% (v/v) penicillin, 1% (v/v) streptomycin and 10% (v/v) fetal calf serum. After incubation overnight at 37° C., 10 μl/well paclitaxel at a final concentration of 0.05 μM were added to cells. Test compounds solubilized in dimethyl sulfoxide (DMSO) were added at various concentrations (0 μM, as well as in the range of 0.005 μM -20 μM; the final concentration of the solvent DMSO was 0.5% (v/v)). Cells were incubated for 24 h at 37° C. in the presence of test compounds in combination with paclitaxel. Thereafter, cells were fixed in 4% (v/v) paraformaldehyde in phosphate buffered saline (PBS) at 4° C. overnight then permeabilized in 0.1% (v/v) Triton X™ 100 in PBS at room temperature for 20 min and blocked in 0.5% (v/v) bovine serum albumin (BSA) in PBS at room temperature for 15 min. After washing with PBS, 5 μl/well antibody solution (anti-phospho-histone H3 clone 3H10, FITC; Millipore, Cat#16-222; 1:1000 dilution) was added to cells, which were incubated for 2 h at room temperature. Afterwards, cells were washed with PBS and 5 μl/well solution of HOECHST 33342 dye (5 μg/ml) was added to cells and cells were incubated 15 min at room temperature in the dark. Cells were washed twice with PBS then covered with PBS and stored at 4° C. until analysis. Images were acquired with a PERKIN ELMER OPERA™ High-Content Analysis reader. Images were analyzed with image analysis software MetaXpress™ from Molecular devices utilizing the Mitotic Index application module. In this assay both labels HOECHST 33342 and phosphorylated Histone H3 on serine 10 were measured. HOECHST 33342 labels the DNA and is used to count the cell number. The staining of phosphorylated Histone H3 on serine 10 determines the number of mitotic cells. […] Otherwise cells were arrested at G2/M phase of the cell cycle progression. The raw assay data were further analyzed by four-parametric hill equation using Genedata's Assay Analyzer and Condoseo software.

[2] = system: HeLa; experiment: Proliferation assay (crystal violet), HeLa; conditions: Homo sapiens, HeLa, 96 h, HeLa cells; 4 days incubation; crystal violet staining; read-out: IC50 inhibition of proliferation, HeLa
Procedure: Cultivated tumor cells (cells were ordered from ATCC, except HeLa-MaTu and HeLa-MaTu-ADR, which were ordered from EPO-GmbH, Berlin) were plated at a density of 1000 to 5000 cells/well, depending on the growth rate of the respective cell line, in a 96-well multititer plate in 200 μL of their respective growth medium supplemented 10% fetal calf serum. After 24 hours, the cells of one plate (zero-point plate) were stained with crystal violet (see below), while the medium of the other plates was replaced by fresh culture medium (200 μl), to which the test substances were added in various concentrations (0 μM, as well as in the range of 0.001-10 μM; the final concentration of the solvent dimethyl sulfoxide was 0.5%). The cells were incubated for 4 days in the presence of test substances. Cell proliferation was determined by staining the cells with crystal violet: the cells were fixed by adding 20 μl/measuring point of an 11% glutaric aldehyde solution for 15 minutes at room temperature. After three washing cycles of the fixed cells with water, the plates were dried at room temperature. The cells were stained by adding 100 μl/measuring point of a 0.1% crystal violet solution (pH 3.0). After three washing cycles of the stained cells with water, the plates were dried at room temperature. The dye was dissolved by adding 100 μl/measuring point of a 10% acetic acid solution. Absorbtion was determined by photometry at a wavelength of 595 nm. The change of cell number, in percent, was calculated by normalization of the measured values to the aborbtion values of the zero-point plate (=0%) and the absorbtion of the untreated (0 μm) cells (=100%). The IC50 values were determined by means of a 4 parameter fit.

[3] = system: human cervical tumor cell line HeLa (ATCC CCL-2); experiment: SAC-Formation - Nocodazole-Induced Assay; conditions: Homo sapiens, HeLa, 24 h, HeLa cells, nocodazole 0.1 μg/ml together with test compound, decrease of mitotic cells (phospho-histone H3 Ser10)
Text: as §1, §2
as §3, with “Cultivated cells of the human cervical tumor cell line HeLa (ATCC CCL-2) were plated at a density of 1000 cells/well in a 1536-well microtiter plate in 2 μl PAA Ham's” for “Ham's”, “nocodazole” for “paclitaxel”, “0.1 μg/ml” for “0.05 μM”, “μM-20” for “μM -20”, “nocodazole.” for “paclitaxel.”

| Structure (SMILES) | IC50 [1] | IC50 [2] | IC50 [3] |
| --- | --- | --- | --- |
| Cc1nsc(Nc2cnc3ccccc3n2)c1C(=O)Nc1cccc(C(=O)N(C)CCN(C)C)c1 [Example 58, N-(3-{[2-(Dimethylamino)ethyl](methyl)carbamoyl}phenyl)-3-methyl-5-(quinoxalin-2-ylamino)-1,2-thiazole-4-carboxamide] | 7300 nM | 10000 nM | 3000 nM |
| Cc1nsc(Nc2cnc3ccccc3n2)c1C(=O)Nc1cccc(C(=O)N2CCC(N3CCCCC3)CC2)c1 [Example 61, N-[3-(1,4′-Bipiperidin-1′-ylcarbonyl)phenyl]-3-methyl-5-(quinoxalin-2-ylamino)-1,2-thiazole-4-carboxamide] | 280 nM | 10000 nM | 31 nM |
| C#CCN(C)C(=O)c1cccc(NC(=O)c2c(C)nsc2Nc2cnc3ccccc3n2)c1 [Example 62, 3-Methyl-N-{3-[methyl(prop-2-yn-1-yl)carbamoyl]phenyl}-5-(quinoxalin-2-ylamino)-1,2-thiazole-4-carboxamide] | 1500 nM | 10000 nM | 440 nM |
| Cc1nsc(Nc2cnc3ccccc3n2)c1C(=O)Nc1cccc(C(=O)Nc2ccc3c(c2)OCO3)c1 [Example 63, N-[3-(1,3-Benzodioxol-5-ylcarbamoyl)phenyl]-3-methyl-5-(quinoxalin-2-ylamino)-1,2-thiazole-4-carboxamide] | 440 nM | 3600 nM | 190 nM |
| Cc1nsc(Nc2cnc3ccccc3n2)c1C(=O)Nc1cccc(C(=O)NCC(F)(F)F)c1 [Example 64, 3-Methyl-5-(quinoxalin-2-ylamino)-N-{3-[(2,2,2-trifluoro-ethyl)carbamoyl]phenyl}-1,2-thiazole-4-carboxamide] | 1300 nM | 2700 nM | 320 nM |
| CC(=O)NCCNC(=O)c1cccc(NC(=O)c2c(C)nsc2Nc2cnc3ccccc3n2)c1 [Example 66, N-(3-{[2-(Acetylamino)ethyl]carbamoyl}phenyl)-3-methyl-5-(quinoxalin-2-ylamino)-1,2-thiazole-4-carboxamide] | 20000 nM | 10000 nM | 720 nM |

More lines, in order of falling IC50 [1], values ahead:

| IC50 [1] | IC50 [2] | IC50 [3] | Structure (SMILES) |
| --- | --- | --- | --- |
| 20000 nM | 10000 nM | 3400 nM | Cc1nsc(Nc2cnc3ccccc3n2)c1C(=O)Nc1cccc(C(=O)N(C)CCO)c1 [Example 59, N-{3-[(2-hydroxyethyl)(methyl)carbamoyl]phenyl}-3-methyl-5-(quinoxalin-2-ylamino)-1,2-thiazole-4-carboxamide] |
| 7400 nM | 8200 nM | 410 nM | Cc1nsc(Nc2cnc3ccccc3n2)c1C(=O)Nc1cccc(C(=O)Nc2ccc(N3CCOCC3)cc2)c1 [Example 65, 3-Methyl-N-(3-{[4-(morpholin-4-yl)phenyl]carbamoyl}phenyl)-5-(quinoxalin-2-ylamino)-1,2-thiazole-4-carboxamide] |
| 1100 nM | 10000 nM | 110 nM | Cc1nsc(Nc2cnc3ccccc3n2)c1C(=O)Nc1cccc(C(=O)N(C)CCCN(C)C)c1 [Example 68, N-(3-{[3-(Dimethylamino)propyl](methyl)carbamoyl}-phenyl)-3-methyl-5-(quinoxalin-2-ylamino)-1,2-thiazole-4-carboxamide] |
| 670 nM | 10000 nM | 16 nM | CCN(C)C(=O)c1cccc(NC(=O)c2c(C)nsc2Nc2cnc3ccccc3n2)c1 [Example 67, N-{3-[Ethyl(methyl)carbamoyl]phenyl}-3-methyl-5-(quinoxalin-2-ylamino)-1,2-thiazole-4-carboxamide] |
| 240 nM | 10000 nM | 310 nM | Cc1nsc(Nc2cnc3ccccc3n2)c1C(=O)Nc1cccc(C(=O)NCCCN2CCCC2=O)c1 [Example 60, 3-Methyl-N-(3-{[3-(2-oxopyrrolidin-1-yl)propyl]carbamoyl}phenyl)-5-(quinoxalin-2-ylamino)-1,2-thiazole-4-carboxamide] |
